The test system of assay [1] is isovaleric acid. Put plainly: Malodor Reduction Test (cross-adaptation, Labeled Magnitude Scale). In kind it is in vivo. Conditions: Homo sapiens, inhaled or nasal; 1% (v/v) test substance in diethylphthalate sniffed before 56 ppm aqueous isovaleric acid; perceived intensity on LMS. How it is done: a) Malodor Reduction Test
Each subject's sense of smell was tested using a smell identification test and an isovaleric acid threshold test. To pass the smell ID test the subject had to correctly identify the aromas of peach, spearmint, cinnamon, lime, pineapple and clove. To pass the isovaleric acid threshold test subjects had to detect the odor of isovaleric acid in a one part-per-million (1 ppm weight/volume) aqueous isovaleric acid solution. This is above the 0.12 ppm threshold for a person with a normal sense of smell and below the 5.0 ppm threshold for a person with a specific anosmia to isovaleric acid (Amoore 1977). The use of an odor ID and a threshold test to identify subjects with a normal sense of smell is standard practice, (Cain, Gent et al. 1983).
The target malodor, isovaleric acid, was presented to the subject in a 60 mL, wide mouth amber, screw cap jar. The concentration of isovaleric acid in water that gave an odor intensity of strong or higher on the Labeled Magnitude Scale was 56 parts-per-million (weight/volume). Five milliliters of a 1% (v/v) solution of the test substance in diethylphthalate (DEP) presented in a 20 ml glass vial were used to evaluate the blocker candidate. The labeled the Labeled Magnitude Scale (LMS, FIG. 1) was developed for the quantitative measurement of taste, irritation and odor intensities (Green, Shaffer et al. 1993; Green, Dalton et al. 1996).
Evaluation of a sample for malodor blocking was as follows: a) The subject sniffed the isovaleric acid (target) with both nostrils and scored its intensity using the Labeled Magnitude Scale (LMS), b) The subject waited one minute, c) the subject sniffed the candidate compound twice with the left and then twice with the right nostril, d) the subject sniffed the isovaleric acid target sample within 20 seconds with both nostrils and scored its odor using the LMS, and e) the subject waited for two minutes before proceeding to the next test substance.
The percent malodor reduction (% MOR) was calculated using the following formula:
% MOR=[1−(IVAInt after CA/IVAINT before CA)]×100 where: IVA isovaleric acid
The ratio in this equation goes from zero (complete blocking) to one (no blocking). The % malodor reduction moves in the opposite direction and goes from 100% for complete blocking to 0% for no blocking.
Tables 1, 2, and 3 present the percent malodor reduction for some low molecular weight acetals, alcohols and esters respectively. In each of these tables the standard error of the mean is the standard deviation of the mean divided by the square root of the number of subjects used for the evaluation.

In assay [2] the test system is isovaleric acid. Put plainly: Deodorant stick containing 1% malodor reduction compound, sniff test. The class given is in vivo, human. The note with it: compound at 1% by weight of deodorant stick; stick sniffed twice before 56 ppm aqueous isovaleric acid. An excerpt:
A conventional deodorant stick composition, for example one with the following composition:
is modified by the addition of compound having a malodor reduction value of 80% or more as measured by the malodor reduction test presented in Example 1 in an amount such that it accounts for 1% by weight of the deodorant stick. […] Examples of effective compounds are: 2-Isobutyl-[1,3]dioxane, 2-Isobutyl-4,5-dimethyl-[1,3]dioxolane, 2-Isobutyl-4-methyl-[1,3]dioxane, 2-Isobutyl-4-methyl-[1,3]dioxolane, 1,1-Dimethoxy-3-methyl-butane, 2-lsobutyl-[1,3]dioxolane, 2-(2-Methyl-cyclopropyl)-[1,3]dioxolane, 2-Isobutyl-5-methyl-[1,3]dioxane, 2-Methylcyclopropane methanol, Ethyl isovalerate, Methyl isovalerate, 2-Methyl-cyclopropanecarboxylic acid methyl ester, n-Propyl isovalerate, and 2-Methyl-cyclopropanecarboxylic acid ethyl ester.

For orientation: inhibition in vivo means the drop in the measured response relative to a control, in per cent. `CCOC(CC(C)C)OCC` [1,1-Diethoxy-3-methyl-butane, 1,1-Diethoxy-3-methyl-butane] yielded an inhibition in vivo at 1 % v/v in the assay with isovaleric acid [1] of 78%. In the assay with isovaleric acid [1], `COC(CC(C)C)OC` [1,1-Dimethoxy-3-methyl-butane, 1,1-Dimethoxy-3-methyl-butane] had an inhibition in vivo at 1 % v/v of 87%. For the same compound, in the assay with isovaleric acid [2], the “block of the perception of isovaleric acid by deodorant stick” value (from here on “block”) was “completely block”. In turn, `CC1(CCO)CC1` [2-(1-Methyl-cyclopropyl)-ethanol, 2-(1-Methyl-cyclopropyl)-ethanol] gave an inhibition in vivo at 1 % v/v in the assay on isovaleric acid [1] of 72%. Take `CC1CC1C1OCCO1` (stereo not drawn) [2-(2-Methyl-cyclopropyl)-[1,3]dioxolane, 2-(2-Methyl-cyclopropyl)-[1,3]dioxolane]: the inhibition in vivo at 1 % v/v with isovaleric acid [1] was 85%. The “block” value in the assay with isovaleric acid [2] is “completely block”.

Compound `CC1CC1CCO` (stereo not drawn) [2-(2-Methyl-cyclopropyl)-ethanol, 2-(2-Methyl-cyclopropyl)-ethanol] returned an inhibition in vivo at 1 % v/v in the assay with isovaleric acid [1] of 77%. Still for that read-out and setting: then `OCCC1CC1` [2-Cyclopropylethanol], with 74%. Regarding `CC(C)CC1OC(C)C(C)O1` (stereo not drawn) [2-Isobutyl-4,5-dimethyl-[1,3]dioxolane, 2-Isobutyl-4,5-dimethyl-[1,3]dioxolane], the inhibition in vivo at 1 % v/v in the assay with isovaleric acid [1] is 89%. Also, in the assay on isovaleric acid [2], the “block” value is on record as “completely block”. Regarding `CC(C)CC1OCCC(C)O1` (stereo not drawn) [2-Isobutyl-4-methyl-[1,3]dioxane, 2-Isobutyl-4-methyl-[1,3]dioxane], the inhibition in vivo at 1 % v/v with isovaleric acid [1] came to 92%. Moreover, the “block” value in the assay on isovaleric acid [2] was “completely block”.

`CC(C)CC1OCC(C)O1` (stereo not drawn) [2-Isobutyl-4-methyl-[1,3]dioxolane, 2-Isobutyl-4-methyl-[1,3]dioxolane] registered an inhibition in vivo at 1 % v/v with isovaleric acid [1] of 89%. Besides, the “block” value in the assay on isovaleric acid [2] is on record as “completely block”. For `CC(C)CC1OCC(C)CO1` (stereo not drawn) [2-Isobutyl-5-methyl-[1,3]dioxane, 2-Isobutyl-5-methyl-[1,3]dioxane], in that order: 80% and “completely block”. For `CC(C)CC1OCCCO1` [2-Isobutyl-[1,3]dioxane], in that order: 97% and “completely block”. The matching figures for `CC(C)CC1OCCO1` [2-Isobutyl-[1,3]dioxolane]: 87% and “completely block”. Compound `CCOC(=O)C1CC1C` (stereo not drawn) [2-Methyl-cyclopropanecarboxylic acid ethyl ester] had an inhibition in vivo at 1 % v/v in the assay on isovaleric acid [1] of 81%. Further, in the assay with isovaleric acid [2], the “block” value is “completely block”.

Consider `CC(C)OC(=O)C1CC1C` (stereo not drawn) [2-Methyl-cyclopropanecarboxylic acid isopropyl ester], for which the inhibition in vivo at 1 % v/v in the assay on isovaleric acid [1] came to 68%.

In the assay on isovaleric acid [1], `COC(=O)C1CC1C` (stereo not drawn) [2-Methyl-cyclopropanecarboxylic acid methyl ester] showed an inhibition in vivo at 1 % v/v of 89%. Also, the “block” value in the assay on isovaleric acid [2] is “completely block”. For `CC1CC1CO` (stereo not drawn) [2-Methylcyclopropane methanol], in that order: 85% and “completely block”.

With `CCC1COC(CC(C)C)O1` (stereo not drawn) [4-Ethyl-2-isobutyl-[1,3]dioxolane, 4-Ethyl-2-isobutyl-[1,3]dioxolane], the inhibition in vivo at 1 % v/v in the assay with isovaleric acid [1] stood at 78%. With `CCOC(=O)CC(C)C` [Ethyl isovalerate], in the assay on isovaleric acid [1], the inhibition in vivo at 1 % v/v is 94%. For the same compound, the “block” value in the assay with isovaleric acid [2] is reported as “completely block”. Consider `CC(C)CCO` [Isoamyl Alcohol], for which, in the assay with isovaleric acid [1], the inhibition in vivo at 1 % v/v was determined as 73%. On the same count and under the same terms, the result for `CC(=O)OCCC(C)C` [Isoamylacetate] reads 67%; that for `CC(C)CC(=O)OC(C)C` [Isopropyl isovalerate], 74%. Regarding `COC(=O)CC(C)C` [Methyl isovalerate], the “block” value in the assay on isovaleric acid [2] was “completely block”.

Compound `CCCOC(=O)CC(C)C` [n-Propyl isovalerate] returned an inhibition in vivo at 1 % v/v with isovaleric acid [1] of 83%. For the same compound, the “block” value in the assay on isovaleric acid [2] is given as “completely block”.

The values above are taken from patent US20030089885A1, “Use of low molecular weight acetal, alcohol, acylated alcohol and ester compounds to block or reduce odor of carboxylic acids” (Senomyx, Inc., priority 2001, published 2003).
